In patent publication EP0908457B1, “3-(1,2-benzisothiazol- and isoxazol-5-Y1)-2,4(1H,3H)-pyrimidinedione or thione and 3-(1,2-benzisothiazol- and isoxazol-5-y1)-4(3H)-pyrimidinone or thione herbicidal agents” (BASF AKTIENGESELLSCHAFT, priority 1997, dated 1999):

Legend:
Format in all cases: in vivo
[1] = tested on: Echinochloa oryzoides (Ard.) Fritsch.; assay: Preemergence weed control under flooded paddy conditions, ECHORC (Watergrass (Calif.)); conditions: flooded paddy; for herbicidal effect rating, ECHORC: preemergence, rated three to four weeks after treatment; for ECHORC: preemergence weeds, herbicidal effect rating 0-9, three to four weeks after treatment
Cyperus iria = assay: Preemergence weed control under flooded paddy conditions, CYPIR (Rice Flatsedge); conditions: flooded paddy; for herbicidal effect rating, CYPIR: preemergence, rated three to four weeks after treatment; for CYPIR: preemergence weeds, herbicidal effect rating 0-9, three to four weeks after treatment
[2] = tested on: Cyperus serotinus, Rottb.; assay: Preemergence weed control under flooded paddy conditions, CYPSE (Flatsedge); conditions: for herbicidal effect rating, CYPSE: preemergence, rated three to four weeks after treatment; for CYPSE: preemergence weeds, herbicidal effect rating 0-9, three to four weeks after treatment
[3] = tested on: Monochoria vaginalis, Presl.; assay: Preemergence weed control under flooded paddy conditions, MOOVA (Monochoria); conditions: flooded paddy; for herbicidal effect rating, MOOVA: preemergence, rated three to four weeks after treatment; for MOOVA: preemergence weeds, herbicidal effect rating 0-9, three to four weeks after treatment
Sagittaria pygmaea, L. = assay: Preemergence weed control under flooded paddy conditions, SAGPY (Arrowhead (Pygmaea)); conditions: flooded paddy; for herbicidal effect rating, SAGPY: preemergence, rated three to four weeks after treatment; for SAGPY: preemergence weeds, herbicidal effect rating 0-9, three to four weeks after treatment

| SMILES | herbicidal effect rating, ECHORC ([1]; Rate 0.0320 kg/ha) | herbicidal effect rating, ECHORC ([1]; Rate 0.0620 kg/ha) | herbicidal effect rating, ECHORC ([1]; Rate 0.2500 kg/ha) | herbicidal effect rating, CYPIR (Cyperus iria; Rate 0.2500 kg/ha) | herbicidal effect rating, CYPSE ([2]; Rate 0.2500 kg/ha) | herbicidal effect rating, MOOVA ([3]; Rate 0.2500 kg/ha) | herbicidal effect rating, SAGPY (Sagittaria pygmaea, L.; Rate 0.2500 kg/ha) | ECHORC ([1]; 0.0320 kg/ha) | ECHORC ([1]; 0.0620 kg/ha) | ECHORC ([1]; 0.1250 kg/ha) | CYPIR (Cyperus iria; 0.0320 kg/ha) | CYPIR (Cyperus iria; 0.0620 kg/ha) | CYPIR (Cyperus iria; 0.1250 kg/ha) | CYPSE ([2]; 0.1250 kg/ha) | MOOVA ([3]; 0.0320 kg/ha) | MOOVA ([3]; 0.0620 kg/ha) | MOOVA ([3]; 0.1250 kg/ha) | SAGPY (Sagittaria pygmaea, L.; 0.0320 kg/ha) | SAGPY (Sagittaria pygmaea, L.; 0.0620 kg/ha) | SAGPY (Sagittaria pygmaea, L.; 0.1250 kg/ha) | also measured |
| --- | --- | --- | --- | --- | --- | --- | --- | --- | --- | --- | --- | --- | --- | --- | --- | --- | --- | --- | --- | --- | --- |
| Cn1c(C(F)(F)F)cc(=O)n(-c2ccc3snc(COC(=O)Cc4ccc(Cl)cc4Cl)c3c2)c1=O [Example 401, 2,4(1H,3H)-Pyrimidinedione, 3-[3-(hydroxymethyl)-1,2-benzisothiazol-5-yl]-1-methyl-6-(trifluoromethyl)-, (2,4-dichlorophenyl)acetate (ester)] | 0.0 | 0.0 | 6.0 | 6.0 | 3.0 | 9.0 | 3.0 |  |  |  |  |  |  |  |  |  |  |  |  |  | herbicidal effect rating, ECHORC ([1]; Rate 0.1250 kg/ha): 2.0; herbicidal effect rating, CYPIR (Cyperus iria; Rate 0.0320 kg/ha): 3.0; herbicidal effect rating, CYPIR (Cyperus iria; Rate 0.0620 kg/ha): 4.0; herbicidal effect rating, CYPIR (Cyperus iria; Rate 0.1250 kg/ha): 5.0; herbicidal effect rating, CYPSE ([2]; Rate 0.0620 kg/ha): 0.0; herbicidal effect rating, CYPSE ([2]; Rate 0.1250 kg/ha): 0.0; herbicidal effect rating, MOOVA ([3]; Rate 0.0320 kg/ha): 6.0; herbicidal effect rating, MOOVA ([3]; Rate 0.0620 kg/ha): 7.0; herbicidal effect rating, MOOVA ([3]; Rate 0.1250 kg/ha): 7.0; herbicidal effect rating, SAGPY (Sagittaria pygmaea, L.; Rate 0.0320 kg/ha): 0.0; herbicidal effect rating, SAGPY (Sagittaria pygmaea, L.; Rate 0.0620 kg/ha): 0.0; herbicidal effect rating, SAGPY (Sagittaria pygmaea, L.; Rate 0.1250 kg/ha): 2.0 |
| Cn1c(C(F)(F)F)cc(=O)n(-c2ccc3snc(COC(=O)Cc4ccccc4Cl)c3c2)c1=O [Example 402, 2,4(1H,3H)-Pyrimidinedione, 3-[3-(hydroxymethyl)-1,2-benzisothiazol-5-yl]-1-methyl-6-(trifluoromethyl)-, (o-chlorophenyl)acetate (ester)] | 0.0 | 0.0 | 4.0 | 7.0 | 5.0 | 9.0 | 3.0 |  |  |  |  |  |  |  |  |  |  |  |  |  | herbicidal effect rating, ECHORC ([1]; Rate 0.1250 kg/ha): 3.0; herbicidal effect rating, CYPIR (Cyperus iria; Rate 0.0320 kg/ha): 0.0; herbicidal effect rating, CYPIR (Cyperus iria; Rate 0.0620 kg/ha): 2.0; herbicidal effect rating, CYPIR (Cyperus iria; Rate 0.1250 kg/ha): 3.0; herbicidal effect rating, CYPSE ([2]; Rate 0.0620 kg/ha): 0.0; herbicidal effect rating, CYPSE ([2]; Rate 0.1250 kg/ha): 0.0; herbicidal effect rating, MOOVA ([3]; Rate 0.0320 kg/ha): 7.0; herbicidal effect rating, MOOVA ([3]; Rate 0.0620 kg/ha): 7.0; herbicidal effect rating, MOOVA ([3]; Rate 0.1250 kg/ha): 9.0; herbicidal effect rating, SAGPY (Sagittaria pygmaea, L.; Rate 0.0320 kg/ha): 0.0; herbicidal effect rating, SAGPY (Sagittaria pygmaea, L.; Rate 0.0620 kg/ha): 0.0; herbicidal effect rating, SAGPY (Sagittaria pygmaea, L.; Rate 0.1250 kg/ha): 0.0 |
| CONC(=O)c1nsc2ccc(-n3c(=O)cc(C(F)(F)F)n(C)c3=O)cc12 [Example 403, 1,2-Benzisothiazole-3-carboxamide, 5-[3,6-dihydro-3-methyl-2,6-dioxo-4-(trifluoromethyl)-1(2H)-pyrimidinyl]-N-methoxy-] |  |  | 4.0 | 9.0 | 4.0 | 9.0 | 9.0 | 0.0 | 2.0 | 4.0 | 5.0 | 6.0 | 7.0 | 2.0 | 7.0 | 6.0 | 9.0 | 3.0 | 9.0 | 9.0 | CYPSE ([2]; 0.0320 kg/ha): 0.0; CYPSE ([2]; 0.0620 kg/ha): 0.0 |
| Cn1c(C(F)(F)F)cc(=O)n(-c2ccc3snc(C(SCCCO)SCCCO)c3c2)c1=O [Example 424, 1,2-Benzisothiazole-3-carboxaldehyde, 5-[3,6-dihydro-3-methyl-2,6-dioxo-4-(trifluoromethyl)-1(2H)-pyrimidinyl]-, 3-[bis(3-hydroxypropyl)dithioacetal]] |  |  |  |  |  |  |  | 0.0 | 0.0 | 3.0 | 4.0 | 5.0 | 6.0 | 3.0 | 7.0 | 9.0 | 9.0 | 0.0 | 0.0 | 0.0 | ECHORC ([1]; 0.2500 kg/ha): 3.0; CYPIR (Cyperus iria; 0.2500 kg/ha): 7.0; CYPSE ([2]; 0.2500 kg/ha): 3.0; MOOVA ([3]; 0.2500 kg/ha): 9.0; SAGPY (Sagittaria pygmaea, L.; 0.2500 kg/ha): 0.0 |
| COc1ccc(C)cc1-c1nsc2cc(Cl)c(-n3c(=O)cc(C(F)(F)F)n(C)c3=O)cc12 [Example 442, 2,4(1H,3H)-Pyrimidinedione, 3-[6-chloro-3-(6-methoxy-m-tolyl)-1,2-benzisothiazol-5-yl]-1-methyl-6-(trifluoromethyl)-] |  |  |  |  |  |  |  | 8.3 | 9.0 | 9.0 | 4.3 | 6.3 | 8.7 | 0.0 | 6.0 | 8.3 | 9.0 | 1.3 | 1.7 | 2.0 | ECHORC ([1]; 0.2500 kg/ha): 9.0; CYPIR (Cyperus iria; 0.2500 kg/ha): 9.0; CYPSE ([2]; 0.0320 kg/ha): 0.0; CYPSE ([2]; 0.0620 kg/ha): 0.0; CYPSE ([2]; 0.2500 kg/ha): 4.5; MOOVA ([3]; 0.2500 kg/ha): 9.0; SAGPY (Sagittaria pygmaea, L.; 0.2500 kg/ha): 4.0 |
